Data as given in patent publication US9540356B2 (priority 2012, dated 2017).

How the values were obtained:
[1] = tested on: HeLa cells; type: cell-based, human
[2] = tested on: retrograde transport of Shiga toxin subunit B (StxB); type: cell-based
[3] = tested on: HeLa cells; test: cells; type: cell-based; conditions: Homo sapiens

SMILES: CSc1ccccc1N1C(=O)c2ccccc2NC1c1ccc(C)s1 (stereo not shown) [Compound 31, 3-(2-(Methylthio)phenyl)-2-(5-methylthiophen-2-yl)-2,3-dihydroquinazolin-4(1H)-one]
- R (Stx), protective index [1]: 99

SMILES: O=C1c2ccccc2NC(c2ccc(-c3ccco3)s2)N1c1ccccc1 (stereo not shown) [Compound 20, 2-(5-(Furan-2-yl)thiophen-2-yl)-3-phenyl-2,3-dihydroquinazolin-4(1H)-one]
- R (Stx), protective index [1]: 41
- retrograde transport, % control [2]: 6.5%

SMILES: CN1c2ccccc2C(=O)N(c2ccccc2)C1c1ccc(-c2ccccc2)s1 (stereo not shown) [Compound 36, 1-Methyl-3-phenyl-2-(5-phenylthiophen-2-yl)-2,3-dihydroquinazolin-4(1H)-one]
- R (Stx), protective index [1]: 29
- retrograde transport, % control [2]: 7.1%

SMILES: Cc1ccc(C2N(C)c3ccccc3C(=O)N2c2ccccc2F)s1 (stereo not shown) [Compound 58, 3-(2-Fluorophenyl)-1-methyl-2-(5-methylthiophen-2-yl)-2,3-dihydroquinazolin-4(1H)-one]
- R (Stx), protective index [1]: 25
- IC50 [3]: 5.5 µM

SMILES: Cc1ccc(C2N(C)c3ccccc3C(=O)N2c2ccccc2Cl)s1 (stereo not shown) [Compound 54, 3-(2-Chlorophenyl)-1-methyl-2-(5-methylthiophen-2-yl)-2,3-dihydroquinazolin-4(1H)-one]
- R (Stx), protective index [1]: 27
- IC50 [3]: 8.2 µM

SMILES: CN1c2ccccc2C(=O)N(c2ccccc2)C1c1ccc(Br)s1 (stereo not shown) [Compound 43, 2-(5-Bromothiophen-2-yl)-1-methyl-3-phenyl-2,3-dihydroquinazolin-4(1H)-one]
- R (Stx), protective index [1]: 40

SMILES: Cc1nc(-c2ccc(C3N(C)c4ccc(F)cc4C(=O)N3c3ccccc3)s2)cs1 (stereo not shown) [Compound 61, 6-Fluoro-1-methyl-2-(5-(2-methylthiazol-4-yl)thiophen-2-yl)-3-phenyl-2,3-dihydroquinazolin-4(1H)-one]
- R (Stx), protective index [1]: 40

SMILES: Cc1nc(-c2ccc(C3N(C)c4ccc(F)cc4C(=O)N3c3ccccc3C(=O)c3ccccc3)s2)cs1 (stereo not shown) [Compound 66]
- IC50 [3]: 1 µM

SMILES: Cc1ccc(C2N(C)c3ccccc3C(=O)N2c2ccccc2I)s1 (stereo not shown) [Compound 55, 3-(2-Iodophenyl)-1-methyl-2-(5-methylthiophen-2-yl)-2,3-dihydroquinazolin-4(1H)-one]
- R (Stx), protective index [1]: 25
- IC50 [3]: 5.4 µM

SMILES: Cc1ccc(C2N(C)c3ccccc3C(=O)N2c2ccccc2-c2ccccc2)s1 (stereo not shown) [Compound 59, 3-([1,1′-Biphenyl]-2-yl)-1-methyl-2-(5-methylthiophen-2-yl)-2,3-dihydroquinazolin-4(1H)-one]
- R (Stx), protective index [1]: 27
- IC50 [3]: 3.7 µM

SMILES: CN1c2ccccc2C(=O)N(c2ccccc2)C1c1ccc(Sc2ccccc2)s1 (stereo not shown) [Compound 44, 1-Methyl-3-phenyl-2-(5-(phenylthio)thiophen-2-yl)-2,3-dihydroquinazolin-4(1H)-one]
- R (Stx), protective index [1]: 71

SMILES: O=C1c2ccccc2NC(c2ccc(-c3ccccc3)s2)N1c1ccccc1 (stereo not shown) [Compound 13, 3-Phenyl-2-(5-phenylthiophen-2-yl)-2,3-dihydroquinazolin-4(1H)-one]
- R (Stx), protective index [1]: 153
- retrograde transport, % control [2]: 13.1%

SMILES: O=C1c2ccccc2NC(c2ccc(-c3ccccn3)s2)N1c1ccccc1 (stereo not shown) [Compound 19, 3-Phenyl-2-(5-(pyridin-2-yl)thiophen-2-yl)-2,3-dihydroquinazolin-4(1H)-one]
- R (Stx), protective index [1]: 46
- retrograde transport, % control [2]: 10.7%

SMILES: CN1c2ccccc2C(=O)N(c2ccccc2)C1c1ccc(-c2ccoc2)s1 (stereo not shown) [Compound 47, 2-(5-(Furan-3-yl)thiophen-2-yl)-1-methyl-3-phenyl-2,3-dihydroquinazolin-4(1H)-one]
- R (Stx), protective index [1]: 49

SMILES: CCc1ccc(C2N(C)c3ccccc3C(=O)N2c2ccccc2)s1 (stereo not shown) [Compound 41, 2-(5-Ethylthiophen-2-yl)-1-methyl-3-phenyl-2,3-dihydroquinazolin-4(1H)-one]
- R (Stx), protective index [1]: 173
- retrograde transport, % control [2]: 0.0%

SMILES: C=CCOC(=O)c1ccccc1N1C(=O)c2ccccc2N(C)C1c1ccc(C)s1 (stereo not shown) [Compound 67, Allyl 2-(1-methyl-2-(5-methylthiophen-2-yl)-4-oxo-1,4-dihydroquinazolin-3(2H)-yl)benzoate]
- IC50 [3]: 13 µM

SMILES: CSc1ccccc1N1C(=O)c2ccccc2N(C)C1c1ccc(C)s1 (stereo not shown) [Compound 57, 1-Methyl-3-(2-(methylthio)phenyl)-2-(5-methylthiophen-2-yl)-2,3-dihydroquinazolin-4(1H)-one]
- R (Stx), protective index [1]: 25
- IC50 [3]: 3.8 µM

SMILES: Cc1nc(-c2ccc(C3N(C)c4ccccc4C(=O)N3c3ccccc3)s2)cs1 (stereo not shown) [Compound 42, 1-Methyl-2-(5-(2-methylthiazol-4-yl)thiophen-2-yl)-3-phenyl-2,3-dihydroquinazolin-4(1H)-one]
- R (Stx), protective index [1]: 85
- retrograde transport, % control [2]: 0.0%

SMILES: CN1c2ccccc2C(=O)N(c2ccccc2)C1c1ccc(-c2csc(CN=[N+]=[N-])n2)s1 (stereo not shown) [Compound 63, 2-(5-(2-(Azidomethyl)thiazol-4-yl)thiophen-2-yl)-1-methyl-3-phenyl-2,3-dihydroquinazolin-4(1H)-one]
- IC50 [3]: 3 to 5 µM

SMILES: Cc1ccc(C2N(C)c3ccccc3C(=O)N2c2ccccc2S(=O)(=O)c2ccccc2)s1 (stereo not shown) [Compound 60, 1-Methyl-2-(5-methylthiophen-2-yl)-3-(2-(phenylsulfonyl)phenyl)-2,3-dihydroquinazolin-4(1H)-one]
- R (Stx), protective index [1]: 320

SMILES: Cc1nc(-c2ccc(C3Nc4ccc(F)cc4C(=O)N3c3ccccc3)s2)cs1 (stereo not shown) [Compound 34, 6-Fluoro-2-(5-(2-methylthiazol-4-yl)thiophen-2-yl)-3-phenyl-2,3-dihydroquinazolin-4(1H)-one]
- R (Stx), protective index [1]: 295

SMILES: CSc1ccc(C2Nc3ccccc3C(=O)N2c2ccccc2)s1 (stereo not shown) [Compound 17, 2-(5-(Methylthio)thiophen-2-yl)-3-phenyl-2,3-dihydroquinazolin-4(1H)-one]
- R (Stx), protective index [1]: 43
- retrograde transport, % control [2]: 22.8%

SMILES: COc1ccccc1N1C(=O)c2ccccc2N(C)C1c1ccc(C)s1 (stereo not shown) [Compound 56, 3-(2-Methoxyphenyl)-1-methyl-2-(5-methylthiophen-2-yl)-2,3-dihydroquinazolin-4(1H)-one]
- R (Stx), protective index [1]: 26
- IC50 [3]: 5.4 µM

SMILES: Cc1ccc(C2Nc3ccc(F)cc3C(=O)N2c2ccccc2)s1 (stereo not shown) [Compound 25, 6-Fluoro-2-(5-methylthiophen-2-yl)-3-phenyl-2,3-dihydroquinazolin-4(1H)-one]
- R (Stx), protective index [1]: 133

SMILES: O=C1c2ccccc2NC(c2ccc(Br)s2)N1c1ccccc1 (stereo not shown) [Compound 9, 2-(5-Bromothiophen-2-yl)-3-phenyl-2,3-dihydroquinazolin-4(1H)-one]
- R (Stx), protective index [1]: 27.9
- IC50 [3]: 13.7 µM

SMILES: Cc1nc(-c2ccc(C3Nc4ccccc4C(=O)N3c3ccccc3)s2)cs1 (stereo not shown) [Compound 21, 2-(5-(2-Methylthiazol-4-yl)thiophen-2-yl)-3-phenyl-2,3-dihydroquinazolin-4(1H)-one]
- R (Stx), protective index [1]: 109
- retrograde transport, % control [2]: 0.0%

SMILES: CN1c2ccccc2C(=O)N(c2ccccc2)C1c1ccc(-c2cccs2)s1 (stereo not shown) [Compound 39, 2-([2,2′-Bithiophen]-5-yl)-1-methyl-3-phenyl-2,3-dihydroquinazolin-4(1H)-one]
- R (Stx), protective index [1]: 36
- retrograde transport, % control [2]: 6.2%

SMILES: CCc1ccc(C2Nc3ccccc3C(=O)N2c2ccccc2)s1 (stereo not shown) [Compound 7, 2-(5-Ethylthiophen-2-yl)-3-phenyl-2,3-dihydroquinazolin-4(1H)-one]
- R (Stx), protective index [1]: 120
- retrograde transport, % control [2]: 13.5%

SMILES: Cc1nc(-c2ccc(C3N(C)c4ccccc4C(=O)N3c3ccccc3C(=O)c3ccccc3)s2)cs1 (stereo not shown) [Compound 65, 3-(2-Benzoylphenyl)-1-methyl-2-(5-(2-methylthiazol-4-yl)thiophen-2-yl)-2,3-dihydroquinazolin-4(1H)-one]
- IC50 [3]: 1 to 3 µM

SMILES: O=C1c2ccccc2NC(c2ccc(-c3cccs3)s2)N1c1ccccc1 (stereo not shown) [Compound 18, 2-([2,2′-Bithiophen]-5-yl)-3-phenyl-2,3-dihydroquinazolin-4(1H)-one]
- R (Stx), protective index [1]: 50
- retrograde transport, % control [2]: 17.1%

SMILES: CSc1ccc(C2N(C)c3ccccc3C(=O)N2c2ccccc2)s1 (stereo not shown) [Compound 38, 1-Methyl-2-(5-(methylthio)thiophen-2-yl)-3-phenyl-2,3-dihydroquinazolin-4(1H)-one]
- R (Stx), protective index [1]: 60
- retrograde transport, % control [2]: 18.2%

SMILES: Cc1ccc(C2N(C)c3ccccc3C(=O)N2c2ccccc2)s1 (stereo not shown) [Compound 35, 1-Methyl-2-(5-methylthiophen-2-yl)-3-phenyl-2,3-dihydroquinazolin-4(1H)-one]
- R (Stx), protective index [1]: 80

SMILES: CN1c2ccccc2C(=O)N(c2ccccc2)C1c1ccc(-c2ccccn2)s1 (stereo not shown) [Compound 37, 1-Methyl-3-phenyl-2-(5-(pyridin-2-yl)thiophen-2-yl)-2,3-dihydroquinazolin-4(1H)-one]
- R (Stx), protective index [1]: 111
- retrograde transport, % control [2]: 10.3%

SMILES: CN1c2ccc(F)cc2C(=O)N(c2ccccc2)C1c1ccc(-c2csc(CN=[N+]=[N-])n2)s1 (stereo not shown) [Compound 64, 2-(5-(2-(Azidomethyl)thiazol-4-yl)thiophen-2-yl)-6-fluoro-1-methyl-3-phenyl-2,3-dihydroquinazolin-4(1H)-one]
- IC50 [3]: < 3 µM

SMILES: CN1c2ccccc2C(=O)N(c2ccccc2)C1c1ccc(CN=[N+]=[N-])s1 (stereo not shown) [Compound 62, 2-(5-(Azidomethyl)thiophen-2-yl)-1-methyl-3-phenyl-2,3-dihydroquinazolin-4(1H)-one]
- IC50 [3]: 12 µM

SMILES: Cc1ccc(C2Nc3ccccc3C(=O)N2c2ccccc2Cl)s1 (stereo not shown) [Compound 32, 3-(2-Chlorophenyl)-2-(5-methylthiophen-2-yl)-2,3-dihydroquinazolin-4(1H)-one]
- R (Stx), protective index [1]: 68

SMILES: COCCOc1ccccc1N1C(=O)c2ccccc2N(C)C1c1ccc(C)s1 (stereo not shown) [Compound 68, 3-(2-(2-Methoxyethoxy)phenyl)-1-methyl-2-(5-methylthiophen-2-yl)-2,3-dihydroquinazolin-4(1H)-one]
- IC50 [3]: 4.2 µM

SMILES: Cc1ccc(C2N(C)c3ccccc3C(=O)N2c2ccccc2C(=O)O)s1 (stereo not shown) [Compound 69, 2-(1-Methyl-2-(5-methylthiophen-2-yl)-4-oxo-1,4-dihydroquinazolin-3(2H)-yl)benzoic acid]
- IC50 [3]: 11.2 µM
